# System: participants with episodic migraine
# Assay: Study B: phase 3 randomized open-label 52-week long-term safety trial, eDiary efficacy (atogepant arm)
# Format: in vivo, human
# Settings: for Change from Baseline in Monthly Acute Medication Use Days, LS means - MMRM / Monthly Acute Medication Use Days, Observed Mean: Atogepant 60 mg QD, mITT Population
# Protocol: Study B: A phase 3, multicenter, randomized, open label study was conducted to evaluate the long-term safety and tolerability of oral atogepant for the prevention of migraine in participants with episodic migraine (Study B). The study objective was to evaluate the safety and tolerability of daily treatment with atogepant 60 mg QD when administered over 52 weeks for the prevention of migraine in participants with episodic migraine.
# FIG. 12 provides a schematic for the long-term safety study design. The study comprised a 4-week baseline/screening period, followed by a 52-week open-label treatment period, and a 4-week safety follow-up period.
# A total of 744 participants from 106 sites were randomized in a ratio of 5:2 to the following treatment groups: atogepant 60 mg QD or oral standard of care (SOC) migraine prevention medication. The latter arm was included to contextualize safety data from the atogepant-treated participants, and efficacy measures were collected from the atogepant arm only. Efficacy measures were evaluated using the modified intent-to-treat (mITT) population and a mixed-effects model for repeated measures and included changes from baseline in monthly migraine days (MDDs), moderate/severe headache days, and acute medication use days, as well as the proportion of responders based on reductions in MMDs.
# A total of 739 patients (n=546 atogepant) were included in the safety population.
# All Screened Participants include those screened participants that signed informed consent forms. The Intent-to-Treat Population (ITT) includes all of the randomized participants. The safety population includes all participants who received at least one dose of study intervention (atogepant or SOC medication).
# Efficacy endpoints for this study included change from baseline in monthly migraine days at each monthly period; change from baseline in monthly headache days at each monthly period; change from baseline in monthly acute medication use days at each monthly period; and ≥50% improvement (reduction) in monthly migraine days at each monthly period.
# [1] = Study B, 60 mg QD, Weeks 1-4, mITT
# [2] = Study B, 60 mg QD, Weeks 5-8, mITT
# [3] = Study B, 60 mg QD, Weeks 9-12, mITT
# [4] = Study B, 60 mg QD, Weeks 13-16, mITT
# [5] = Study B, 60 mg QD, Weeks 17-20, mITT
# [6] = Study B, 60 mg QD, Weeks 21-24, mITT
# [7] = Study B, 60 mg QD, Weeks 25-28, mITT
# [8] = Study B, 60 mg QD, Weeks 29-32, mITT
# [9] = Study B, 60 mg QD, Weeks 33-36, mITT
# [10] = Study B, 60 mg QD, Weeks 37-40, mITT
# [11] = Study B, 60 mg QD, Weeks 41-44, mITT
# [12] = Study B, 60 mg QD, Weeks 45-48, mITT
# [13] = Study B, 60 mg QD, Weeks 49-52, mITT
# [14] = Study B, 60 mg QD, weeks 49-52, participants who remained in the trial
compound,measurement,setting,value
C[C@@H]1[C@H](c2c(F)ccc(F)c2F)C[C@H](NC(=O)c2cnc3c(c2)C[C@@]2(C3)C(=O)Nc3ncccc32)C(=O)N1CC(F)(F)F [atogepant],"Monthly headache days, change from baseline, LS means (95% CI) - MMRM",[1],-4.00 days
same,"Monthly headache days, observed mean (SD)",[1],4.40 days
same,"Monthly migraine days, change from baseline, LS means (95% CI) - MMRM",[1],-3.84 days
same,"Monthly migraine days, observed mean (SD)",[1],3.47 days
same,"≥50% improvement (reduction) in monthly migraine days, responder n/N1 (%)",[1],(60.4) %
same,"Monthly headache days, change from baseline, LS means (95% CI) - MMRM",[2],-4.40 days
same,"Monthly headache days, observed mean (SD)",[2],3.97 days
same,"Monthly migraine days, change from baseline, LS means (95% CI) - MMRM",[2],-4.15 days
same,"Monthly migraine days, observed mean (SD)",[2],3.13 days
same,"≥50% improvement (reduction) in monthly migraine days, responder n/N1 (%)",[2],(65.1) %
same,"Monthly headache days, change from baseline, LS means (95% CI) - MMRM",[3],-4.80 days
same,"Monthly headache days, observed mean (SD)",[3],3.51 days
same,"Monthly migraine days, change from baseline, LS means (95% CI) - MMRM",[3],-4.38 days
same,"Monthly migraine days, observed mean (SD)",[3],2.85 days
same,"≥50% improvement (reduction) in monthly migraine days, responder n/N1 (%)",[3],(70.2) %
same,"Monthly headache days, change from baseline, LS means (95% CI) - MMRM",[4],-5.12 days
same,"Monthly headache days, observed mean (SD)",[4],3.19 days
same,"Monthly migraine days, change from baseline, LS means (95% CI) - MMRM",[4],-4.69 days
same,"Monthly migraine days, observed mean (SD)",[4],2.52 days
same,"≥50% improvement (reduction) in monthly migraine days, responder n/N1 (%)",[4],(74.1) %
same,"Monthly headache days, change from baseline, LS means (95% CI) - MMRM",[5],-5.35 days
same,"Monthly headache days, observed mean (SD)",[5],2.84 days
same,"Monthly migraine days, change from baseline, LS means (95% CI) - MMRM",[5],-4.76 days
same,"Monthly migraine days, observed mean (SD)",[5],2.33 days
same,"≥50% improvement (reduction) in monthly migraine days, responder n/N1 (%)",[5],(73.5) %
same,"Monthly headache days, change from baseline, LS means (95% CI) - MMRM",[6],-5.30 days
same,"Monthly headache days, observed mean (SD)",[6],2.87 days
same,"Monthly migraine days, change from baseline, LS means (95% CI) - MMRM",[6],-4.72 days
same,"Monthly migraine days, observed mean (SD)",[6],2.37 days
same,"≥50% improvement (reduction) in monthly migraine days, responder n/N1 (%)",[6],(75.3) %
same,"Monthly headache days, change from baseline, LS means (95% CI) - MMRM",[7],-5.42 days
same,"Monthly migraine days, change from baseline, LS means (95% CI) - MMRM",[7],-4.85 days
same,"Monthly migraine days, observed mean (SD)",[7],2.20 days
same,"≥50% improvement (reduction) in monthly migraine days, responder n/N1 (%)",[7],(75.1) %
same,"Monthly headache days, change from baseline, LS means (95% CI) - MMRM",[8],-5.41 days
same,"Monthly headache days, observed mean (SD)",[8],2.52 days
same,"Monthly migraine days, change from baseline, LS means (95% CI) - MMRM",[8],-4.82 days
same,"Monthly migraine days, observed mean (SD)",[8],2.12 days
same,"≥50% improvement (reduction) in monthly migraine days, responder n/N1 (%)",[8],(76.7) %
same,"Monthly headache days, change from baseline, LS means (95% CI) - MMRM",[9],-5.62 days
same,"Monthly headache days, observed mean (SD)",[9],2.47 days
same,"Monthly migraine days, change from baseline, LS means (95% CI) - MMRM",[9],-4.95 days
same,"Monthly migraine days, observed mean (SD)",[9],2.06 days
same,"≥50% improvement (reduction) in monthly migraine days, responder n/N1 (%)",[9],(80.5) %
same,"Monthly headache days, change from baseline, LS means (95% CI) - MMRM",[10],-5.69 days
same,"Monthly headache days, observed mean (SD)",[10],2.45 days
same,"Monthly migraine days, change from baseline, LS means (95% CI) - MMRM",[10],-4.97 days
same,"Monthly migraine days, observed mean (SD)",[10],2.08 days
same,"≥50% improvement (reduction) in monthly migraine days, responder n/N1 (%)",[10],(78.1) %
same,"Monthly headache days, change from baseline, LS means (95% CI) - MMRM",[11],-5.66 days
same,"Monthly headache days, observed mean (SD)",[11],2.45 days
same,"Monthly migraine days, change from baseline, LS means (95% CI) - MMRM",[11],-4.95 days
same,"Monthly migraine days, observed mean (SD)",[11],2.09 days
same,"≥50% improvement (reduction) in monthly migraine days, responder n/N1 (%)",[11],(78.5) %
same,"Monthly headache days, change from baseline, LS means (95% CI) - MMRM",[12],-5.90 days
same,"Monthly headache days, observed mean (SD)",[12],2.23 days
same,"Monthly migraine days, change from baseline, LS means (95% CI) - MMRM",[12],-5.13 days
same,"Monthly migraine days, observed mean (SD)",[12],1.91 days
same,"≥50% improvement (reduction) in monthly migraine days, responder n/N1 (%)",[12],(82.4) %
same,"Monthly headache days, change from baseline, LS means (95% CI) - MMRM",[13],-5.99 days
same,"Monthly headache days, observed mean (SD)",[13],2.13 days
same,"Monthly migraine days, change from baseline, LS means (95% CI) - MMRM",[13],-5.19 days
same,"Monthly migraine days, observed mean (SD)",[13],1.84 days
same,"≥50% improvement (reduction) in monthly migraine days, responder n/N1 (%)",[13],84.2%
same,"≥50% improvement (reduction) in monthly migraine days, responder n/N1 (%)","Study B, 60 mg QD, Weeks 49-52, mITT, listed as Atogepant",(84.2) %
same,participants with 100% reduction in MMDs,[14],48.4%
same,participants with ≥75% reduction in MMDs,[14],69.9%
same,reduction from baseline in monthly migraine days,"Study B, 60 mg, month 1, given as reduction",approximately 4 days
same,"Change from Baseline in Monthly Acute Medication Use Days, LS means - MMRM",Weeks 1-4,-4.04 days
same,"Monthly Acute Medication Use Days, Observed Mean",Weeks 1-4,2.60 days
same,"Change from Baseline in Monthly Acute Medication Use Days, LS means - MMRM",Weeks 5-8,-4.11 days
same,"Monthly Acute Medication Use Days, Observed Mean",Weeks 5-8,2.49 days
same,"Change from Baseline in Monthly Acute Medication Use Days, LS means - MMRM",Weeks 9-12,-4.18 days
same,"Monthly Acute Medication Use Days, Observed Mean",Weeks 9-12,2.39 days
same,"Change from Baseline in Monthly Acute Medication Use Days, LS means - MMRM",Weeks 13-16,-4.46 days
same,"Monthly Acute Medication Use Days, Observed Mean",Weeks 13-16,2.09 days
same,"Change from Baseline in Monthly Acute Medication Use Days, LS means - MMRM",Weeks 17-20,-4.56 days
same,"Monthly Acute Medication Use Days, Observed Mean",Weeks 17-20,1.92 days
same,"Change from Baseline in Monthly Acute Medication Use Days, LS means - MMRM",Weeks 21-24,-4.49 days
same,"Monthly Acute Medication Use Days, Observed Mean",Weeks 21-24,2.01 days
same,"Change from Baseline in Monthly Acute Medication Use Days, LS means - MMRM",Weeks 25-28,-4.59 days
same,"Monthly Acute Medication Use Days, Observed Mean",Weeks 25-28,1.90 days
same,"Change from Baseline in Monthly Acute Medication Use Days, LS means - MMRM",Weeks 29-32,-4.54 days
same,"Monthly Acute Medication Use Days, Observed Mean",Weeks 29-32,1.84 days
same,"Change from Baseline in Monthly Acute Medication Use Days, LS means - MMRM",Weeks 33-36,-4.66 days
same,"Monthly Acute Medication Use Days, Observed Mean",Weeks 33-36,1.75 days
same,"Change from Baseline in Monthly Acute Medication Use Days, LS means - MMRM",Weeks 37-40,-4.68 days
same,"Monthly Acute Medication Use Days, Observed Mean",Weeks 37-40,1.75 days
same,"Change from Baseline in Monthly Acute Medication Use Days, LS means - MMRM",Weeks 41-44,-4.71 days
same,"Monthly Acute Medication Use Days, Observed Mean",Weeks 41-44,1.69 days
same,"Change from Baseline in Monthly Acute Medication Use Days, LS means - MMRM",Weeks 45-48,-4.90 days
same,"Monthly Acute Medication Use Days, Observed Mean",Weeks 45-48,1.51 days
same,"Change from Baseline in Monthly Acute Medication Use Days, LS means - MMRM",Weeks 49-52,-4.93 days
same,"Monthly Acute Medication Use Days, Observed Mean",Weeks 49-52,1.50 days

# Reference: patent US12383545B1, “Treatment of migraine” (priority 2018, dated 2025)
